Consider 13 compounds from US9850283B2, “Macrocyclic inhibitors of the PD-1/PD-L1 and CD80(B7-1)/PD-L1 protein/protein interactions” (BRISTOL-MYERS SQUIBB COMPANY, priority 2013, dated 2017).

Experiment [1] has as its target T1, LK35.2-hPD-L1 cells / PE-labeled PD-1-Ig (Homo sapiens, UniProt Q9NZQ7).
T1 construct: expressed in transfected cells; host or cells: LK35.2 mouse B cell line
As to the kind of experiment: LK35.2-hPD-L1 cell binding high-content screening assay. The note with it: cell line of CBA not given (LK35.2-hPD-L1 or 293T-hPD-L1). Type of experiment: cell-based. The procedure, abridged: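 Binding of PE-conjugated human PD-1-Ig (1 nM final) to human PD-L1 stably expressed on a mouse B-cell line (LK35.2) was measured by high-content imaging after washes. Compound and labeled PD-1-Ig were co-incubated 1 h at 37 °C with cells in RPMI/10% FCS.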

The next experiment addresses T2, Human PD-L1/PD-1 (Homo sapiens, UniProt Q9NZQ7).
T2 construct: made in house; host or cells: HEK293T
Kind of experiment: HTRF PD-1-Ig/PD-L1-His binding assay (human PD-L1). The procedure, abridged: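 Soluble Fc-fused PD-1 and His-tagged PD-L1 (truncated before the transmembrane region) were combined in dPBS with 0.1% (w/v) BSA and 0.05% (v/v) Tween-20. Binding was read by HTRF using europium cryptate anti-Ig antibody (1 nM final) and APC anti-His antibody (20 nM final).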

Where [2] appears, read: cluster symbol, read-out: CBA IC50 cluster.
[3] abbreviates: cluster symbol, read-out: HTRF IC50 cluster.

Usually IC50 stands for the concentration that inhibits the measured activity by half.

Where two headings read alike, the source gives them in different places. Positions of bridges follow the written chain, without caps; N, C: chain ends. Non-standard residues stand in square brackets, D forms with d. Residues, ends and D or L forms follow the SMILES beside them. NMeF = CN[C@@H](Cc1ccccc1)C(=O)O; Chg = N[C@H](C(=O)O)C1CCCCC1; NMeNle = CCCC[C@H](NC)C(=O)O; Dap = NC[C@H](N)C(=O)O; Sar = CNCC(=O)O

T2 sequence (Q9NZQ7 with tags, fused parts or gaps): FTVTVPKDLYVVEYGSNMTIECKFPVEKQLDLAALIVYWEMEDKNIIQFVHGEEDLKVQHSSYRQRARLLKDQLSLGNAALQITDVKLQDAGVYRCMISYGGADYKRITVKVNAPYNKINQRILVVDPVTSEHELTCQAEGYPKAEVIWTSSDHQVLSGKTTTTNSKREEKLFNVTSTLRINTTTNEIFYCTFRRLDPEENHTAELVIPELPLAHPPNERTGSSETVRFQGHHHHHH
T1 sequence (Q9NZQ7 19-290): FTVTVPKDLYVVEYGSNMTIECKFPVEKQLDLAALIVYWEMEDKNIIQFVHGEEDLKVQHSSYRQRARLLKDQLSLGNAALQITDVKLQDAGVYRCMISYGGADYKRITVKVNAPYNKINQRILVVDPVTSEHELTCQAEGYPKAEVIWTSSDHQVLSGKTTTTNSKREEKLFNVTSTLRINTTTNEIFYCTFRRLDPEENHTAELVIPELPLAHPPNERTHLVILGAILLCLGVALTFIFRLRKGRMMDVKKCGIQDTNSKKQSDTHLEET

Regarding `CCCC[C@H]1C(=O)N(C)CC(=O)N[C@@H](CC(=O)O)C(=O)N[C@@H](CCC(=O)O)C(=O)N(C)[C@@H](Cc2ccccc2)C(=O)N[C@@H](Cc2ccc(O)cc2)C(=O)N(C)CC(=O)N[C@@H](Cc2c[nH]c3ccccc23)C(=O)N[C@@H](Cc2ccc(O)cc2)C(=O)N[C@@H](CC(C)C)C(=O)N[C@H](C(=O)NCC(N)=O)CSCC(=O)N[C@@H](Cc2ccccc2)C(=O)N(C)[C@@H](Cc2ccccc2)C(=O)N1C` [Example 3150] (HELM PEPTIDE1{[O=C(C[*:3])[*:2]].F.[meF].[CCCC[C@@H](C(=O)[*:2])N(C)[*:1]].[Sar].D.E.[meF].Y.[Sar].W.Y.L.C.G.[am]}$PEPTIDE1,PEPTIDE1,1:R3-14:R3$$$V2.0), the IC50 in experiment [1] (setting [2]) is greater than 74.3 nM; at Human PD-L1/PD-1 (setting [3]), greater than 30.5 nM.
For `CCCC[C@H]1C(=O)N(C)CC(=O)N[C@@H](CC(=O)O)C(=O)N[C@@H](CCCNC(=N)N)C(=O)N(C)[C@@H](Cc2ccccc2)C(=O)N[C@@H](Cc2ccc(O)cc2)C(=O)N(C)CC(=O)N[C@@H](Cc2c[nH]c3ccccc23)C(=O)N[C@@H](Cc2ccc(O)cc2)C(=O)N[C@@H](CC(C)C)C(=O)N[C@H](C(=O)NCC(N)=O)CSCC(=O)N[C@@H](Cc2ccccc2)C(=O)N(C)[C@@H](Cc2ccccc2)C(=O)N1C` [Example 3151] (HELM PEPTIDE1{[O=C(C[*:3])[*:2]].F.[meF].[CCCC[C@@H](C(=O)[*:2])N(C)[*:1]].[Sar].D.R.[meF].Y.[Sar].W.Y.L.C.G.[am]}$PEPTIDE1,PEPTIDE1,1:R3-14:R3$$$V2.0) the same measures were greater than 74.3 nM and greater than 30.5 nM.
The corresponding values for `CCCC[C@H]1C(=O)N(C)CC(=O)N[C@@H](CN)C(=O)N[C@@H](C(C)C)C(=O)N(C)[C@@H](Cc2ccccc2)C(=O)N[C@@H](Cc2ccc(O)cc2)C(=O)N(C)CC(=O)N[C@@H](Cc2c[nH]c3ccccc23)C(=O)N[C@@H](Cc2ccc(O)cc2)C(=O)N[C@@H](CC(C)C)C(=O)N[C@H](C(=O)NCC(N)=O)CSCC(=O)N[C@@H](Cc2ccccc2)C(=O)N(C)[C@@H](Cc2ccccc2)C(=O)N1C` [Example 3152] ({CH2CO}-F[NMeF][NMeNle][Sar][Dap]V[NMeF]Y[Sar]WYLCG-NH2; thioether N-13) are 4.78 to 72.9 nM and 6.76 to 30.3 nM.
For `CCCC[C@H]1C(=O)N(C)CC(=O)N[C@@H](CCN)C(=O)N[C@@H](C(C)C)C(=O)N(C)[C@@H](Cc2ccccc2)C(=O)N[C@@H](Cc2ccc(O)cc2)C(=O)N(C)CC(=O)N[C@@H](Cc2c[nH]c3ccccc23)C(=O)N[C@@H](Cc2ccc(O)cc2)C(=O)N[C@@H](CC(C)C)C(=O)N[C@H](C(=O)NCC(N)=O)CSCC(=O)N[C@@H](Cc2ccccc2)C(=O)N(C)[C@@H](Cc2ccccc2)C(=O)N1C` [Example 3153] (HELM PEPTIDE1{[O=C(C[*:3])[*:2]].F.[meF].[CCCC[C@@H](C(=O)[*:2])N(C)[*:1]].[Sar].[Dab].V.[meF].Y.[Sar].W.Y.L.C.G.[am]}$PEPTIDE1,PEPTIDE1,1:R3-14:R3$$$V2.0) the same measures were 4.78 to 72.9 nM and 6.76 to 30.3 nM.
Consider `CCCC[C@H]1C(=O)N(C)CC(=O)N[C@@H](Cc2ccc(O)cc2)C(=O)N[C@@H](C(C)C)C(=O)N(C)[C@@H](Cc2ccccc2)C(=O)N[C@@H](Cc2ccc(O)cc2)C(=O)N(C)CC(=O)N[C@@H](Cc2c[nH]c3ccccc23)C(=O)N[C@@H](Cc2ccc(O)cc2)C(=O)N[C@@H](CC(C)C)C(=O)N[C@H](C(=O)NCC(N)=O)CSCC(=O)N[C@@H](Cc2ccccc2)C(=O)N(C)[C@@H](Cc2ccccc2)C(=O)N1C` [Example 3154] (HELM PEPTIDE1{[O=C(C[*:3])[*:2]].F.[meF].[CCCC[C@@H](C(=O)[*:2])N(C)[*:1]].[Sar].Y.V.[meF].Y.[Sar].W.Y.L.C.G.[am]}$PEPTIDE1,PEPTIDE1,1:R3-14:R3$$$V2.0), for which the IC50 in experiment [1] (read-out: CBA IC50 value) amounted to 18.4 nM; at Human PD-L1/PD-1 (read-out: HTRF IC50 value) it was 230 nM.
With `CCCC[C@H]1C(=O)N(C)CC(=O)N[C@@H](CC(=O)O)C(=O)N[C@@H](COC)C(=O)N(C)[C@@H](Cc2ccccc2)C(=O)N[C@@H](Cc2ccc(O)cc2)C(=O)N(C)CC(=O)N[C@@H](Cc2c[nH]c3ccccc23)C(=O)N[C@@H](Cc2ccc(O)cc2)C(=O)N[C@@H](CC(C)C)C(=O)N[C@H](C(=O)NCC(N)=O)CSCC(=O)N[C@@H](Cc2ccccc2)C(=O)N(C)[C@@H](Cc2ccccc2)C(=O)N1C` [Example 3155] ({CH2CO}-F[NMeF][NMeNle][Sar]DS(Me)[NMeF]Y[Sar]WYLCG-NH2; thioether N-13), the IC50 was greater than 74.3 nM in experiment [1] (setting [2]) and greater than 30.5 nM at Human PD-L1/PD-1 (setting [3]).
Turning to `CCCC[C@H]1C(=O)N(C)CC(=O)N[C@@H](CC(=O)O)C(=O)N[C@@H](CO)C(=O)N(C)[C@@H](Cc2ccccc2)C(=O)N[C@@H](Cc2ccc(O)cc2)C(=O)N(C)CC(=O)N[C@@H](Cc2c[nH]c3ccccc23)C(=O)N[C@@H](Cc2ccc(O)cc2)C(=O)N[C@@H](CC(C)C)C(=O)N[C@H](C(=O)NCC(N)=O)CSCC(=O)N[C@@H](Cc2ccccc2)C(=O)N(C)[C@@H](Cc2ccccc2)C(=O)N1C` [Example 3156] (HELM PEPTIDE1{[O=C(C[*:3])[*:2]].F.[meF].[CCCC[C@@H](C(=O)[*:2])N(C)[*:1]].[Sar].D.S.[meF].Y.[Sar].W.Y.L.C.G.[am]}$PEPTIDE1,PEPTIDE1,1:R3-14:R3$$$V2.0), the IC50 in experiment [1] (read-out: CBA IC50 value) is 1870 nM; at Human PD-L1/PD-1 (read-out: HTRF IC50 value), 439 nM.
Turning to `CCCC[C@H]1C(=O)N(C)CC(=O)N[C@@H](CC(=O)O)C(=O)N[C@@H]([C@@H](C)OC)C(=O)N(C)[C@@H](Cc2ccccc2)C(=O)N[C@@H](Cc2ccc(O)cc2)C(=O)N(C)CC(=O)N[C@@H](Cc2c[nH]c3ccccc23)C(=O)N[C@@H](Cc2ccc(O)cc2)C(=O)N[C@@H](CC(C)C)C(=O)N[C@H](C(=O)NCC(N)=O)CSCC(=O)N[C@@H](Cc2ccccc2)C(=O)N(C)[C@@H](Cc2ccccc2)C(=O)N1C` [Example 3157] ({CH2CO}-F[NMeF][NMeNle][Sar]DT(Me)[NMeF]Y[Sar]WYLCG-NH2; thioether N-13), the figures for the IC50 (in experiment [1] (setting [2]); on Human PD-L1/PD-1 (setting [3])) were 4.78 to 72.9 nM and 6.76 to 30.3 nM, respectively.
For `CCCC[C@H]1C(=O)N(C)CC(=O)N[C@@H](CC(=O)O)C(=O)N[C@@H](C2CCCCC2)C(=O)N(C)[C@@H](Cc2ccccc2)C(=O)N[C@@H](Cc2ccc(O)cc2)C(=O)N(C)CC(=O)N[C@@H](Cc2c[nH]c3ccccc23)C(=O)N[C@@H](Cc2ccc(O)cc2)C(=O)N[C@@H](CC(C)C)C(=O)N[C@H](C(=O)NCC(N)=O)CSCC(=O)N[C@@H](Cc2ccccc2)C(=O)N(C)[C@@H](Cc2ccccc2)C(=O)N1C` [Example 3158] ({CH2CO}-F[NMeF][NMeNle][Sar]D[Chg][NMeF]Y[Sar]WYLCG-NH2; thioether N-13), the IC50 in experiment [1] (setting [2]) was 4.78 to 72.9 nM; at Human PD-L1/PD-1 (setting [3]), greater than 30.5 nM.
The corresponding values for `CCCC[C@H]1C(=O)N(C)CC(=O)N[C@@H](CC(=O)O)C(=O)N[C@@H](CC2CCCCC2)C(=O)N(C)[C@@H](Cc2ccccc2)C(=O)N[C@@H](Cc2ccc(O)cc2)C(=O)N(C)CC(=O)N[C@@H](Cc2c[nH]c3ccccc23)C(=O)N[C@@H](Cc2ccc(O)cc2)C(=O)N[C@@H](CC(C)C)C(=O)N[C@H](C(=O)NCC(N)=O)CSCC(=O)N[C@@H](Cc2ccccc2)C(=O)N(C)[C@@H](Cc2ccccc2)C(=O)N1C` [Example 3159] (HELM PEPTIDE1{[O=C(C[*:3])[*:2]].F.[meF].[CCCC[C@@H](C(=O)[*:2])N(C)[*:1]].[Sar].D.[Cha].[meF].Y.[Sar].W.Y.L.C.G.[am]}$PEPTIDE1,PEPTIDE1,1:R3-14:R3$$$V2.0) are greater than 74.3 nM and greater than 30.5 nM.
For `CCCC[C@H]1C(=O)N(C)CC(=O)N[C@@H](CC(=O)O)C(=O)N[C@@H](C(C)C)C(=O)N(C)[C@@H](Cc2ccccc2)C(=O)N[C@@H](Cc2ccc(O)cc2)C(=O)N(C)CC(=O)N[C@@H](Cc2c[nH]c3ccccc23)C(=O)N[C@@H](Cc2ccc(O)cc2)C(=O)N[C@@H](CC(C)C)C(=O)N[C@H](C(=O)NCC(N)=O)CC=CC(=O)N[C@@H](Cc2ccccc2)C(=O)N(C)[C@@H](Cc2ccccc2)C(=O)N1C` [Example 3160] the same measures were greater than 74.3 nM and greater than 30.5 nM.
Consider `CCCC[C@H]1C(=O)N(C)CC(=O)N[C@@H](CC(=O)O)C(=O)N[C@@H](C(C)C)C(=O)N(C)[C@@H](Cc2ccccc2)C(=O)N[C@@H](Cc2ccc(O)cc2)C(=O)N(C)CC(=O)N[C@@H](Cc2c[nH]c3ccccc23)C(=O)N[C@@H](Cc2ccc(O)cc2)C(=O)N[C@@H](CN)C(=O)N[C@H](C(=O)NCC(N)=O)CSCC(=O)N[C@@H](Cc2ccccc2)C(=O)N(C)[C@@H](Cc2ccccc2)C(=O)N1C` [Example 3161] ({CH2CO}-F[NMeF][NMeNle][Sar]DV[NMeF]Y[Sar]WY[Dap]CG-NH2; thioether N-13), for which the values for the IC50 (in experiment [1] (setting [2]); at Human PD-L1/PD-1 (setting [3])) were 4.78 to 72.9 nM and 6.76 to 30.3 nM, respectively.
The corresponding values for `CCCC[C@H]1C(=O)N(C)CC(=O)N[C@@H](CC(=O)O)C(=O)N[C@@H](C(C)C)C(=O)N(C)[C@@H](Cc2ccccc2)C(=O)N[C@@H](Cc2ccc(O)cc2)C(=O)N(C)CC(=O)N[C@@H](Cc2c[nH]c3ccccc23)C(=O)N[C@@H](Cc2ccc(O)cc2)C(=O)N[C@@H](CCN)C(=O)N[C@H](C(=O)NCC(N)=O)CSCC(=O)N[C@@H](Cc2ccccc2)C(=O)N(C)[C@@H](Cc2ccccc2)C(=O)N1C` [Example 3162] (HELM PEPTIDE1{[O=C(C[*:3])[*:2]].F.[meF].[CCCC[C@@H](C(=O)[*:2])N(C)[*:1]].[Sar].D.V.[meF].Y.[Sar].W.Y.[Dab].C.G.[am]}$PEPTIDE1,PEPTIDE1,1:R3-14:R3$$$V2.0) are 4.78 to 72.9 nM and 6.76 to 30.3 nM.
